We go through seven compounds from patent US7781421B2, “Neuroactive 13, 24-cyclo-18, 21-dinorcholanes and structurally related pentacyclic steriods” (Washington University, priority 2003, dated 2010).

Series [1] addresses GABAA receptor ([35S]-TBPS binding site, rat brain cortical membranes). In words: Displacement of [35S]-TBPS binding, rat brain cortical membranes. Particulars: 5 μM GABA, 2 nM [35S]-TBPS; ± standard error of the means. Here is the method: Rat brain cortical membranes were prepared with minor modifications of the method previously reported. (Hawkinson, J. E., et al., Correlation of Neuroactive Steroid Modulation of [^35S]t-Butylbicyclophosophorothionate and [^3H]Flunitrazepam Binding and γ-Aminobutyric AcidA Receptor Function, Mol. Pharmacol., 1994, 46, 977-985). Briefly, frozen rat cerebral cortices (Pel-freez, Rogers, Ak.) were thawed and homogenized in 10 volumes of ice-cold 0.32 M sucrose using a glass/Teflon pestle. The homogenate was centrifuged at 1500×g for 10 min at 4° C. The resultant supernatant was centrifuged at 10,000×g for 30 min at 4° C. The pellet (P2) from this centrifugation was resuspended in 200 mM NaCl, 50 mM potassium phosphate buffer, pH 7.4, and centrifuged at 10,000×g for 20 min at 4° C. This washing procedure was done a total of three times, and then pellets were resuspended in buffer (˜4 mL/brain) using a glass/Teflon pestle. The membrane suspension was aliquoted, frozen in liquid nitrogen, and stored at −80° C. prior to use.
[^35S]-TBPS Binding assays were done according to the procedure described previously (Hawkinson, J. E., et al., Correlation of Neuroactive Steroid Modulation of [^35S]t-Butylbicyclophosophorothionate and [^3H]Flunitrazepam Binding and γ-Aminobutyric AcidA Receptor Function, Mol. Pharmacol., 1994, 46, 977-985) with modifications. Briefly, aliquots of membrane solution (0.5 mg/mL final protein concentration in assay) were incubated with 5 μM GABA, 2 nM [^35S]-TBPS (45-120 Ci/mmol), and 5 μL aliquots of steroid in DMSO solution (final assay concentrations ranged from 1 nM to 10 μM), and brought to a final volume of 1 mL with 200 mM NaCl, 50 mM potassium phosphate buffer, pH 7.4. […] Assay tubes were incubated for 2 hr at room temperature. A Brandel (Gaithersburg, Md.) cell harvester was used for filtration of the assay tubes through Whatman/GF/C glass filter paper. Filter paper was rinsed with 4 mL of ice-cold buffer three times. Radioactivity bound to the filters was read by liquid scintillation counter and data was fit using Sigma Plot version 3.0 to the Hill equation i. f=Rmax/{1+([conc]/IC50)^n}
Where Rmax is the maximal effect, [conc] is steroid concentration, IC50 is the half-maximal inhibitor concentration and n is the Hill coefficient. Each data point was determined in triplicate and 2-3 full concentration-response curves were generated for each steroid.
Background: In a radioligand displacement assay an active substance lowers the binding of a labelled ligand.

Series [2] concerns the target T1, rat α1β2γ2 GABAA Receptor (Rattus norvegicus, UniProt P18508+P62813+P63138, INS375LLRMFSFK).
T1 construct: from linearized pBluescript vectors containing receptor coding regions; expressed in transfected cells; host or cells: Xenopus laevis oocytes injected with in vitro transcribed capped mRNA
The experiment in a line: Xenopus oocyte two-electrode voltage-clamp electrophysiology. Particulars: for Oocyte electrophysiology, ratio of currents in presence/absence of compound, 0.1 μM: 0.1 μM compound co-applied with 2 μM GABA; for Oocyte electrophysiology, ratio of currents in presence/absence of compound, 0.1 μM / Oocyte electrophysiology, ratio of currents in presence/absence of compound, 1 μM / Oocyte electrophysiology, ratio of currents in presence/absence of compound, 10 μM: −70 mV; for Oocyte electrophysiology, ratio of currents in presence/absence of compound, 1 μM: 1 μM compound co-applied with 2 μM GABA; for Oocyte electrophysiology, ratio of currents in presence/absence of compound, 10 μM: 10 μM compound co-applied with 2 μM GABA; for Gating (10 μM), ratio of compound only current/2 μM GABA current: direct current gated by 10 μM compound in the absence of GABA. Format: cell-based. Here is the method: Stage V-VI oocytes were harvested from sexually mature female Xenopus laevis (Xenopus One, Northland, Mich.) under 0.1% tricaine (3-aminobenzoic acid ethyl ester) anesthesia. Oocytes were defolliculated by shaking for 20 min at 37° C. in collagenase (2 mg/ml) dissolved in calcium-free solution containing (in mM): 96 NaCl, 2 KCl, 1 MgCl2, and 5 HEPES at pH 7.4. Capped mRNA, encoding rat GABAA receptor α1, β2 and γ2L subunits was transcribed in vitro using the mMESSAGE mMachine Kit (Ambion, Austin, Tex.) from linearized pBluescript vectors containing receptor coding regions. Subunit transcripts were injected in equal parts (20-40 ng total RNA) 8-24 hours following defolliculation. Oocytes were incubated up to 5 days at 18° C. in ND96 medium containing (in mM): 96 NaCl, 1 KCl, 1 MgCl2, 2 CaCl2 and 5 HEPES at pH 7.4, supplemented with pyruvate (5 mM), penicillin (100 U/ml), streptomycin (100 μg/ml) and gentamycin (50 μg/ml). The cDNAs for the rat GABAA-receptor subunits were originally provided by A. Tobin, University of California, Los Angels (α1), P. Malherbe, Hoffman-La Roche, Switzerland (β2), C. Fraser, National Institute on Alcohol Abuse and Alcoholism (γ2L).
Two-electrode voltage-clamp experiments were performed with a Warner OC725 amplifier 2-5 days following RNA injection. The extracellular recording solution was ND96 medium with no supplements. Intracellular recording pipettes were filled with 3 M KCl and had open tip resistances of ˜1 MΩ. Drugs were applied from a common tip via a gravity-driven multibarrel drug-delivery system. Steroids were simultaneously co-applied with GABA. Cells were clamped at −70 mV for all experiments, and peak current during 20 s drug applications was measured. Data acquisition and analysis were performed with pCLAMP software (Axon Instruments, California). Statistical differences were determined using a two-tailed Student's t-test.
The GABA concentration used for the control response was 2 μM. Each compound was evaluated on at least four different oocytes at the concentrations indicated, and the results reported are the ratio of the currents measured in the presence/absence of added compound. (G) represents direct current gated by 10 μM compound in the absence of GABA, and this current is reported as the ratio of compound only current/2 μM GABA current. Error limits are calculated as standard error of the means.
(Two-electrode voltage clamp is typically applied to oocytes expressing channels or transporters.)

Series [3] concerns Xenopus laevis tadpoles. The experiment in a line: Tadpole loss of righting (LRR) and swimming (LSR) reflexes. Conditions: 3 h equilibration at room temperature; for EC50: read-out: LSR EC50 (loss of swimming response). Format: in vivo. Here is the method: Tadpole LRR was measured as described previously. (See, Wittmer, L. L., et al., Enantioselectivity of steroid-induced γ-aminobutyric acidA receptor modulation and anesthesia, Mol. Phar., 1996, 50:1581-1586). Briefly, groups of 10 early prelimb-bud stage Xenopus laevis tadpoles (Nasco, Fort Atkinson, Wis.) were placed in 100 mL of oxygenated Ringer's stock solution containing various concentrations of compound. Compounds were added from a 10 mM DMSO stock (final concentration of DMSO in test solutions ≦0.1%). After equilibrating at room temperature for 3 h, tadpoles were evaluated using the LRR and LSR behavioral endpoints. LRR was defined as failure of the tadpole to right itself within 5 sec after being flipped by a smooth glass rod. LSR was defined as failure of the tadpole to swim when touched by a smooth glass rod. In general, the tadpoles regained their righting and swimming reflexes when placed in fresh oxygenated Ringer's solution. Control beakers containing up to 0.6% DMSO produced no LRR or LSR in tadpoles.
Tadpole LRR and LSR concentration-response curves were fit using Sigma Plot version 3.0 to the Hill equation f=Rmax/{1+([conc]/EC50)^n}
where Rmax is the maximum effect, [conc] is the steroid concentration, EC50 is the half-maximal effective concentration, and n is the Hill coefficient.

Molecules are shown by their SMILES. Where two headings read alike, the source gives them in different places.

T1 sequence (P62813 28-455, stated change not applied): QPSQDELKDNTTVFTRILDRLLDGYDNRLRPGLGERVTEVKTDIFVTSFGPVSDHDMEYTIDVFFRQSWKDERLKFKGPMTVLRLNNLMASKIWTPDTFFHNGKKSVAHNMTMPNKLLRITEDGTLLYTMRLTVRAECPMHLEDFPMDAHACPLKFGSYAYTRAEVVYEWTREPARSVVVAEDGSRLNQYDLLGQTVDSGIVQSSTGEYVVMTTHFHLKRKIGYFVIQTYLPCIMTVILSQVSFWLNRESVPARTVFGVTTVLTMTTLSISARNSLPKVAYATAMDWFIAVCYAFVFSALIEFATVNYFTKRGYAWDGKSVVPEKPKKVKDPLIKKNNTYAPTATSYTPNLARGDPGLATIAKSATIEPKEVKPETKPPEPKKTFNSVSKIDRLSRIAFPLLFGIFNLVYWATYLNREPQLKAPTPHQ
T1 sequence (P63138 26-474, stated change not applied): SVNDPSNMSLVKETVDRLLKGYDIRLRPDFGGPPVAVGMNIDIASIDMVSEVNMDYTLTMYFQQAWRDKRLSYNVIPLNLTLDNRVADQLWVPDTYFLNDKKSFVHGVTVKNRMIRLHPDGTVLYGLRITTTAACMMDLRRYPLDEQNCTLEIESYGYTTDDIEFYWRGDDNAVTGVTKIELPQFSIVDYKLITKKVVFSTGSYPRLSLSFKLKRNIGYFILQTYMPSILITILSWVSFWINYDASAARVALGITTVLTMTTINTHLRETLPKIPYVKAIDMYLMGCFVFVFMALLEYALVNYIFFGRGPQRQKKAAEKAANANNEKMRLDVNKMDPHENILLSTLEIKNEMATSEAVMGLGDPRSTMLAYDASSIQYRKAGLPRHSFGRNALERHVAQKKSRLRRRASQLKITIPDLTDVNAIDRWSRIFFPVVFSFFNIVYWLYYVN
T1 sequence (P18508 with tags, fused parts or gaps INS375LLRMFSFK): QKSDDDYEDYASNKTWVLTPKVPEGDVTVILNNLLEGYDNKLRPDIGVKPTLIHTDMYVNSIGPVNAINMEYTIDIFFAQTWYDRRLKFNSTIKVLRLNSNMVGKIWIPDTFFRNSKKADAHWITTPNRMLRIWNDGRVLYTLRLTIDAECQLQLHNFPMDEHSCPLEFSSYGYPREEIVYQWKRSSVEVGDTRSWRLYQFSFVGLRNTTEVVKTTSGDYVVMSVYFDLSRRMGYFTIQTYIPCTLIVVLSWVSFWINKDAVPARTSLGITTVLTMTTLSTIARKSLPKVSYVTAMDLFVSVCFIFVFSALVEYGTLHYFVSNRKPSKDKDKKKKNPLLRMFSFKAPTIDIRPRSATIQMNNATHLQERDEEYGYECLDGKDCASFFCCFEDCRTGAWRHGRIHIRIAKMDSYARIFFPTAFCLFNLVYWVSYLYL

Usually IC50 stands for the concentration that gives 50% inhibition. A lower IC50 goes with inhibition by little substance. Usually EC50 stands for the concentration giving half of the maximal effect. By melting point is commonly meant the temperature, or range, at which the solid turns liquid. `C[C@]12CC[C@@H](O)C[C@@H]1CCC1C3CCC4CCC(=O)C[C@@]43CCC12` (stereo partly drawn) [Compound 4a, (3α,5α)-3-Hydroxy-13,24-cyclo-18,21-dinorcholan-23-one] returned a melting point of 185 to 186 °C. In series [1], the IC50 was determined as 334 ± 17 nM. Also, in series [2], the “Oocyte electrophysiology, ratio of currents in presence/absence of compound, 0.1 μM” value is 1.39 ± 0.38; the “Oocyte electrophysiology, ratio of currents in presence/absence of compound, 1 μM” value was 1.64 ± 0.15; the “Oocyte electrophysiology, ratio of currents in presence/absence of compound, 10 μM” value was found to be 6.49 ± 0.59; the “Gating (10 μM), ratio of compound only current/2 μM GABA current” value (“Gating (10 μM), ratio” below) amounted to 0.32 ± 0.01. Also, in series [3], the “LRR ED50 (loss of righting response)” value turned out to be 1120 ± 360 nM. The EC50 in series [3] (Xenopus laevis, 3 h) was 3580 ± 1080 nM.

As to `C[C@]12CC[C@@H](O)C[C@@H]1CCC1C3CC[C@@H]4[C@@H](C#N)CCC[C@]34CCC12` (stereo partly drawn) [Compound 40, (3α,5α,20S)-3-Hydroxy-13,24-cyclo-18,21-dinorcholane-20-carbonitrile], the melting point is 250 to 251 °C. In addition, the IC50 in series [1] was 173 ± 12 nM. Besides, in series [2], the “Oocyte electrophysiology, ratio of currents in presence/absence of compound, 0.1 μM” value turned out to be 1.06 ± 0.03; the “Oocyte electrophysiology, ratio of currents in presence/absence of compound, 1 μM” value was 1.23 ± 0.02; the “Oocyte electrophysiology, ratio of currents in presence/absence of compound, 10 μM” value was found to be 1.27 ± 0.02; the “Gating (10 μM), ratio” value is recorded as −0.01 ± 0.01. Also, in series [3], the “LRR ED50 (loss of righting response)” value was greater than 10000 nM and the “LSR EC50 (loss of swimming response)” value is “None @ 10”.

Compound `C[C@]12CC[C@@H](O)C[C@@H]1CCC1C3CC[C@@H]4C[C@H](C#N)CC[C@]34CCC12` (stereo partly drawn) [Compound 45, (3α,5α,22R)-3-Hydroxy-13,24-cyclo-18,21-dinorcholane-22-carbonitrile] displayed a melting point of 244 to 246 °C. The same compound showed an IC50 in series [1] of 44300 ± 21300 nM. Also, in series [2], the “Oocyte electrophysiology, ratio of currents in presence/absence of compound, 0.1 μM” value is listed as 0.90 ± 0.02; the “Oocyte electrophysiology, ratio of currents in presence/absence of compound, 1 μM” value came to 0.82 ± 0.02; the “Oocyte electrophysiology, ratio of currents in presence/absence of compound, 10 μM” value came to 0.87 ± 0.01; the “Gating (10 μM), ratio” value is on record as −0.01 ± 0. In series [3], the “LRR ED50 (loss of righting response)” value is greater than 10000 nM and the “LSR EC50 (loss of swimming response)” value is given as “None @ 10”.

In turn, `COC1CCCC23CCC4C(CCC5CC(O)CCC54C)C2CCC13` [Compound 70, (3α,5α,20R)-20-Methoxy-13,24-cyclo-18,21-dinorcholan-3-ol] yielded a melting point of 200 to 202 °C. In series [1], this compound returned an IC50 of 868 ± 78 nM. Also, in series [2], the “Oocyte electrophysiology, ratio of currents in presence/absence of compound, 0.1 μM” value came out at 0.74 ± 0.01; the “Oocyte electrophysiology, ratio of currents in presence/absence of compound, 1 μM” value worked out at 0.87 ± 0.02; the “Oocyte electrophysiology, ratio of currents in presence/absence of compound, 10 μM” value was found to be 1.02 ± 0.03; the “Gating (10 μM), ratio” value was found to be 0.00 ± 0.00. Moreover, in series [3], the “LRR ED50 (loss of righting response)” value was greater than 10000 nM and the “LSR EC50 (loss of swimming response)” value is “None @ 10”.

Turning to `COC1CCCC23CCC4C(CCC5CC(O)CCC54C)C2CCC13` [Compound 69, (3α,5α,20S)-20-Methoxy-13,24-cyclo-18,21-dinorcholan-3-ol], the melting point lay within 182 to 183 °C. This compound also had an IC50 in series [1] of 353 ± 38 nM. In series [2], the “Oocyte electrophysiology, ratio of currents in presence/absence of compound, 0.1 μM” value is recorded as 0.90 ± 0.04; the “Oocyte electrophysiology, ratio of currents in presence/absence of compound, 1 μM” value is given as 1.26 ± 0.09; the “Oocyte electrophysiology, ratio of currents in presence/absence of compound, 10 μM” value is listed as 1.72 ± 0.28; the “Gating (10 μM), ratio” value stood at 0.00 ± 0.00. In addition, in series [3], the “LRR ED50 (loss of righting response)” value is on record as “None @ 10” and the “LSR EC50 (loss of swimming response)” value is reported as “None @ 10”.

Compound `CC12CCC(O)CC1CCC1C2CCC23CCCC(O)C2CCC13` [Compound 68, (3α,5α,20R)-13,24-cyclo-18,21-dinorcholane-3,20-diol] came in with a melting point of 269 to 271 °C. This compound also had an IC50 in series [1] of 1540 nM. Moreover, in series [2], the “Oocyte electrophysiology, ratio of currents in presence/absence of compound, 0.1 μM” value was 0.74 ± 0.05; the “Oocyte electrophysiology, ratio of currents in presence/absence of compound, 1 μM” value amounted to 0.74 ± 0.05; the “Oocyte electrophysiology, ratio of currents in presence/absence of compound, 10 μM” value was 0.79 ± 0.04; the “Gating (10 μM), ratio” value is on record as 0.01 ± 0.02. Moreover, in series [3], the “LRR ED50 (loss of righting response)” value is greater than 10000 nM and the “LSR EC50 (loss of swimming response)” value is reported as “None @ 10”.

Regarding `CC12CCC(O)CC1CCC1C2CCC23C(=O)C=CCC2CCC13` (stereo not drawn) [Compound 35b, (3α,5β)-3-Hydroxy-13,24-cyclo-18,21-dinorchol-22-en-24-one], the melting point lay in the range of 222 to 223 °C. The compound also gave an IC50 in series [1] of 105 ± 12 nM. Also, in series [2], the “Oocyte electrophysiology, ratio of currents in presence/absence of compound, 0.1 μM” value is reported as 1.36 ± 0.60; the “Oocyte electrophysiology, ratio of currents in presence/absence of compound, 1 μM” value is given as 3.15 ± 1.19; the “Oocyte electrophysiology, ratio of currents in presence/absence of compound, 10 μM” value worked out at 21.38 ± 11.08; the “Gating (10 μM), ratio” value is listed as 0.20 ± 0.19. Moreover, in series [3], the “LRR ED50 (loss of righting response)” value was found to be 400 ± 130 nM and the EC50 came to 1000 nM.
